Measured values: ChEMBL document CHEMBL1201862, “PubChem BioAssay data set” (2004)
Active and inactive are the calls of the source. Cut-off read from the data, not from the text of the source, for most assays here: actives have a measured IC50 and inactives only a lower limit.

Key:
[1] = target: T1, Sentrin-specific protease 8 (Homo sapiens, UniProt Q96LD8); assay type: functional;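 note: luminescence read-out of SENP8 inhibition, dose-response confirmation following an ultra-high-throughput screen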
T1 sequence (Q96LD8 whole entry): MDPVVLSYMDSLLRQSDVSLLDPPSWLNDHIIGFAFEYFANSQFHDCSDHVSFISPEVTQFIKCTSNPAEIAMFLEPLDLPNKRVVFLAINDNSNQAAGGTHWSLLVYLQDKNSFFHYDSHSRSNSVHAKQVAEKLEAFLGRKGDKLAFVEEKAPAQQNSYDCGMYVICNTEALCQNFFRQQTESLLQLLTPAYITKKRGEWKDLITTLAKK

[2] = target: T2, Sentrin-specific protease 7 (Homo sapiens, UniProt Q9BQF6); assay type: functional;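 note: Luminescence-based dose-response confirmation of ultra-high-throughput screening hits, measuring inhibition of SENP7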
T2 sequence (Q9BQF6 whole entry): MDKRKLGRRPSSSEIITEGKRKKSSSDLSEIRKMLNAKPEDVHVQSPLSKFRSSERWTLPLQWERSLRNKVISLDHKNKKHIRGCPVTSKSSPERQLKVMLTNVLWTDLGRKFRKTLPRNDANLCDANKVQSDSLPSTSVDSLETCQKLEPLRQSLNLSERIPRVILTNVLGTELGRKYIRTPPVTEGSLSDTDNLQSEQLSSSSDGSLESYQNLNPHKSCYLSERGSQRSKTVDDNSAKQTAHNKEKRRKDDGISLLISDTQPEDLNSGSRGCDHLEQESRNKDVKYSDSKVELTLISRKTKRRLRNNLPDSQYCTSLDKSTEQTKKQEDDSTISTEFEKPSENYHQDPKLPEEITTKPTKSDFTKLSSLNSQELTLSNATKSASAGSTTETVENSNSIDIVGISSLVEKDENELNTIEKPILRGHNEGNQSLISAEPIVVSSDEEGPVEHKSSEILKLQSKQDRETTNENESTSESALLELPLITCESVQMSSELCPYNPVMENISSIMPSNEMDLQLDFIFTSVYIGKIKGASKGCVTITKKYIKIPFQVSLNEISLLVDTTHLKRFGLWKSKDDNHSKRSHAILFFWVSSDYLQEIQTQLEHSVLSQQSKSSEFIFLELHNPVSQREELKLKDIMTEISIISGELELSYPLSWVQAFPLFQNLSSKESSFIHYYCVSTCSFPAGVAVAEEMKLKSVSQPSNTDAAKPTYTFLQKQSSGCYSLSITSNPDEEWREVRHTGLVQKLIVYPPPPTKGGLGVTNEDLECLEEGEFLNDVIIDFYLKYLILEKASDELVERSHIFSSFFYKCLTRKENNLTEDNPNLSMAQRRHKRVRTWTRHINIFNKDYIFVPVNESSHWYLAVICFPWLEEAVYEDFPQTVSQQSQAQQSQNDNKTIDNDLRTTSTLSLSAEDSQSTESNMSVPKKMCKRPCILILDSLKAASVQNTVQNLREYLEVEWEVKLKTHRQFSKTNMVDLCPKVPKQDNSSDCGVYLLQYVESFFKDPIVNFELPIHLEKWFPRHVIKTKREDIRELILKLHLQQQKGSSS

Caspase-3 = target: T3, Caspase-3 (Homo sapiens, UniProt P42574); assay type: functional;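 note: Dose-response selectivity test against caspase-3 for candidate inhibitors of sentrin-specific proteases (SENPs)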
T3 sequence (P42574 whole entry): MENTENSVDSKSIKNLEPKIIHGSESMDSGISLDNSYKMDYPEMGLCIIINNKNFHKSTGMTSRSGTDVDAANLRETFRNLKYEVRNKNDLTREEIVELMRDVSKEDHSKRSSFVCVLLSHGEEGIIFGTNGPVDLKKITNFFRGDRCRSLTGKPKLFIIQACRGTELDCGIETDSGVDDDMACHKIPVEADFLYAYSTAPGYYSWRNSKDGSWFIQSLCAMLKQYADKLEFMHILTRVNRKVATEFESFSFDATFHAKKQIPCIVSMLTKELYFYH

[3] = target: T4, Sentrin-specific protease 6 (Homo sapiens, UniProt Q9GZR1); assay type: functional
T4 sequence (Q9GZR1 whole entry): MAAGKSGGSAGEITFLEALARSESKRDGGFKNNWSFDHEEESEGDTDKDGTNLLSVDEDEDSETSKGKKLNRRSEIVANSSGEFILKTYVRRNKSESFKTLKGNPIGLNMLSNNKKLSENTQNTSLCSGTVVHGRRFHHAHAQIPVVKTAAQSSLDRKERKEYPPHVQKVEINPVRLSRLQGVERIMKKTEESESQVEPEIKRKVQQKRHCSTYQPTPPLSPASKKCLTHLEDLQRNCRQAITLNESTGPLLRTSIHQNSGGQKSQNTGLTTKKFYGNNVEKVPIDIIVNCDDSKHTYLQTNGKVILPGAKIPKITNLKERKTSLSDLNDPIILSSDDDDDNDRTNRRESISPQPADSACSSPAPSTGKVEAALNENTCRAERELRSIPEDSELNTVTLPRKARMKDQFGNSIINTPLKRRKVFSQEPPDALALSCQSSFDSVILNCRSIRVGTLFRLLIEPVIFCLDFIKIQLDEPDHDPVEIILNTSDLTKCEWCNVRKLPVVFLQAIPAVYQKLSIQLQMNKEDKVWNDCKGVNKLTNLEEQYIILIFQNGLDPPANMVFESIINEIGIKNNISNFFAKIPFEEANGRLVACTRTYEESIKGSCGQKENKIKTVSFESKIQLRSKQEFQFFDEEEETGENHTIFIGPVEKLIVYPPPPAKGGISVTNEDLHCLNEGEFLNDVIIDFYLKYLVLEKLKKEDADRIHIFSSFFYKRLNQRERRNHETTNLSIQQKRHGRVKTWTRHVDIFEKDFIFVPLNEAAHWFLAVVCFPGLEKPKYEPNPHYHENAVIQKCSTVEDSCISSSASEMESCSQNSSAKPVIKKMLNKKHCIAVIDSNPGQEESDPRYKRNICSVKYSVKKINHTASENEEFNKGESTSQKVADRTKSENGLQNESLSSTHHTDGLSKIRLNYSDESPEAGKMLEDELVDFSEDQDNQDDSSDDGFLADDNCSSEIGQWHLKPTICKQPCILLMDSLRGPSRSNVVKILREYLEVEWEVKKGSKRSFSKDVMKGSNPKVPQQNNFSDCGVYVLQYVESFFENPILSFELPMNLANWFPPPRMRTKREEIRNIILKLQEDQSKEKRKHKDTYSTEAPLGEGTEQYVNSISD

[4] = target: Tyrosyl-DNA phosphodiesterase 2 (Homo sapiens, UniProt O95551); experiment: human TDP2 enzyme inhibitors, dose response, biochemical, epi absorbance, IC50 (AID 743297)
[5] = target: T4, Sentrin-specific protease 6; experiment: SAR Analysis of small molecule inhibitors of Sentrin-specific protease 6 (SENP6) using a Luminescent assay. [Related pubchem assays (depositor defined):AID2582, AID2599]; assay type: functional
[6] = target: T1, Sentrin-specific protease 8; experiment: SENP8 protease inhibitors, SAR follow-up, biochemical, luminescence (AID 504501); assay type: functional
[7] = target: Serine/threonine-protein phosphatase PP1-alpha catalytic subunit (Homo sapiens, UniProt P62136); experiment: PP1 phosphatase inhibitors, dose response, biochemical, fluorescence (AID 2394)
[8] = growth suppression of PTEN-null colon cells, dose response, cell-based, HCT116 PTEN knockout (AID 1047); assay type: functional;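 note: HCT116 colon tumor cells with PTEN knocked out; cells exposed to compound for 60 hours before readout; potency for loss of cell viability measured by luminescence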

Sequence of Tyrosyl-DNA phosphodiesterase 2 (O95551 whole entry): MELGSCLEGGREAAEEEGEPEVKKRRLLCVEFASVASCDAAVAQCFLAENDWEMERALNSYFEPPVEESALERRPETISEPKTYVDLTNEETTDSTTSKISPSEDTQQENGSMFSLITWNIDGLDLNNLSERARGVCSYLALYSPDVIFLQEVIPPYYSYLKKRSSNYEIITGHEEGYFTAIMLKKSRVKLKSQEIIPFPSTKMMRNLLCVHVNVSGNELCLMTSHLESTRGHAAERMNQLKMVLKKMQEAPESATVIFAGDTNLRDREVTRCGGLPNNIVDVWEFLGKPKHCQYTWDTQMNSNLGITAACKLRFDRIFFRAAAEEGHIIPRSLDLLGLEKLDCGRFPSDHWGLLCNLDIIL
Sequence of Serine/threonine-protein phosphatase PP1-alpha catalytic subunit (P62136 whole entry): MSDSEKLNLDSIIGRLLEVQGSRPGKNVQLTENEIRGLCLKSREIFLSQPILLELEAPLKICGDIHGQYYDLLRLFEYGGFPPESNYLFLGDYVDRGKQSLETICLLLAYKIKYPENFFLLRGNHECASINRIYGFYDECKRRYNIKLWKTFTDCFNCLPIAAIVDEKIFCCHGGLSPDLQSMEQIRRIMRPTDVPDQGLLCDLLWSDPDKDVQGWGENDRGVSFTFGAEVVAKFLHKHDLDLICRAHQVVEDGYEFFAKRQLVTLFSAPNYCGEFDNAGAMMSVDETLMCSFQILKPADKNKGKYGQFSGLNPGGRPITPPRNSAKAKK

IC50 [4]	Structure (SMILES)	IC50 [1]	IC50 [2]	IC50 (Caspase-3)	IC50 [3]	IC50 [5]	IC50 [6]	IC50 [7]	EC50 [8]
52.5 µM (inactive)	CCOC(=O)C1=C(COC(=O)c2ccc([N+](=O)[O-])s2)NC(=O)NC1C (stereo not drawn)	3.57 µM (active)	6.1 µM (active)	8.13 µM (active)	4.48 µM (active)				
	Oc1cccc(/C=N/Nc2cc(N3CCCC3)nc(N3CCCC3)n2)c1	17.2 µM (active)	9.99 µM (active)	> 100 µM (inactive)	6.69 µM (active)	20.4 µM (active)	> 99 µM (inactive)	21.6 µM (not active)	20.3 µM (active)
